From patent US20200347043A1, “MODULATORS OF THE INTEGRATED STRESS PATHWAY” (Calico Life Sciences LLC, priority 2019, published 2020) come the findings set out here.

In this experiment the test system is HEK293T cells carrying the ATF4 luciferase reporter. Briefly: ATF4-Luc assay (in vitro model of VWMD). It counts as cell-based, human. Conditions: Homo sapiens, HEK-293T, 1 μg/mL tunicamycin, 7 hours, One Glo luminescence. Here is the method:
In order to test exemplary compounds of the invention in a cellular context, a stable VWMD cell line was first constructed. The ATF4 reporter was prepared by fusing the human full-length ATF4 5′-UTR (NCBI Accession No. BC022088.2) in front of the firefly luciferase (FLuc) coding sequence lacking the initiator methionine as described in Sidrauski et al (eLife 2013). The construct was used to produce recombinant retroviruses using standard methods and the resulting viral supernatant was used to transduce HEK293T cells, which were then subsequently selected with puromycin to generate a stable cell line.
HEK293T cells carrying the ATF4 luciferase reporter were plated on polylysine coated 384-well plates (Greiner Bio-one) at 30,000 cells per well. Cells were treated the next day with 1 μg/mL tunicamycin and 200 nM of a compound of Formula (I) for 7 hours. Luminescence was measured using One Glo (Promega) as specified by the manufacturer. Cells were maintained in DMEM with L-glutamine supplemented with 10% heat-inactivated FBS (Gibco) and Antibiotic-Antimycotic solution (Gibco).
Table 4 below summarizes the EC50 data obtained using the ATF4-Luc assay for exemplary compounds of the invention.

For the compound `O=C(CO[C@H]1C[C@@H](OC(F)(F)F)C1)N[C@H]1CC[C@H](NC(=O)[C@H]2C[C@@H](O)c3cc(Cl)ccc3O2)CC1` [Compound 214, (2R,4R)-6-chloro-4-hydroxy-N-[trans-4-(2-{[cis-3-(trifluoromethoxy)cyclobutyl]oxy}acetamido)cyclohexyl]-3,4-dihydro-2H-1-benzopyran-2-carboxamide], the EC50 lay within 0.01 to 0.05 µM.

For `O=C(N[C@@H]1CC[C@@H](c2nnc([C@H]3C[C@@H](OC(F)(F)F)C3)o2)OC1)C1CC(O)c2cc(Cl)ccc2O1` (mixture of isomers) [Compound 161, (2RS,4RS)-6-chloro-4-hydroxy-N-[(3R,6)-6-{5-[cis-3-(trifluoromethoxy)cyclobutyl]-1,3,4-oxadiazol-2-yl}oxan-3-yl]-3,4-dihydro-2H-1-benzopyran-2-carboxamide], the EC50 is below 0.01 µM.

Take `O=C(NC12CC(c3nc(-c4ccc(Cl)c(F)c4)no3)(C1)C2)[C@@H]1C[C@H](O)c2cc(Cl)ccc2O1` (single isomer, unassigned) [Compound 199]: the EC50 is 0.05 to 0.25 µM.

Consider `O=C(NC12CC(c3cc([C@H]4C[C@@H](OC(F)(F)F)C4)no3)(C1)C2)[C@H]1C[C@@H](O)c2cc(Cl)ccc2O1` [Compound 266, (2R,4R)-6-chloro-4-hydroxy-N-(3-{3-[cis-3-(trifluoromethoxy)cyclobutyl]-1,2-oxazol-5-yl}bicyclo[1.1.1]pentan-1-yl)-3,4-dihydro-2H-1-benzopyran-2-carboxamide], for which the EC50 fell in the range of 0.01 to 0.05 µM.

`O=C(NC12CCC(c3nnc([C@H]4C[C@@H](OC(F)(F)F)C4)o3)(CC1)CC2)[C@@H]1C[C@H](O)c2cc(Cl)ccc2O1` [Compound 204, (2S,4S)-6-chloro-4-hydroxy-N-(4-{5-[cis-3-(trifluoromethoxy)cyclobutyl]-1,3,4-oxadiazol-2-yl}bicyclo[2.2.2]octan-1-yl)-3,4-dihydro-2H-1-benzopyran-2-carboxamide]: the EC50 is 0.01 to 0.05 µM.

In the case of `O=C(NC12CC(N3CCC(c4ccc(Cl)cc4)C3=O)(C1)C2)[C@H]1C[C@@H](O)c2cc(Cl)ccc2O1` (single isomer, unassigned) [Compound 225, (2R,4R)-6-chloro-N-{3-[(3R*)-3-(4-chlorophenyl)-2-oxopyrrolidin-1-yl]bicyclo[1.1.1]pentan-1-yl}-4-hydroxy-3,4-dihydro-2H-1-benzopyran-2-carboxamide], the EC50 was in the range of 0.5 to 2 µM.

Consider `O=C(NC12CC(c3cc([C@H]4C[C@H](OC(F)(F)F)C4)no3)(C1)C2)[C@H]1C[C@@H](O)c2cc(Cl)ccc2O1` [Compound 284, (2R,4R)-6-chloro-4-hydroxy-N-(3-{3-[trans-3-(trifluoromethoxy)cyclobutyl]-1,2-oxazol-5-yl}bicyclo[1.1.1]pentan-1-yl)-3,4-dihydro-2H-1-benzopyran-2-carboxamide], for which the EC50 lay in the range of 0.05 to 0.25 µM.

As for `O=C(COc1ccc(Cl)c(F)c1)N[C@@H]1CC[C@@H](c2nnc([C@H]3C[C@@H](OC(F)(F)F)C3)o2)OC1` [Compound 153, 2-(4-chloro-3-fluorophenoxy)-N-[(3R,6S)-6-{5-[(1s,3R)-3-(trifluoromethoxy)cyclobutyl]-1,3,4-oxadiazol-2-yl}oxan-3-yl]acetamide], the 50% effective concentration (EC50) was below 0.01 µM.

As to `O=C(NC12CC(n3ccc(-c4ccc(C(F)(F)F)nc4)c3)(C1)C2)[C@@H]1C[C@@H](O)c2cc(Cl)ccc2O1` [Compound 245, (2S,4R)-6-chloro-4-hydroxy-N-(3-{3-[6-(trifluoromethyl)pyridin-3-yl]-1H-pyrrol-1-yl}bicyclo[1.1.1]pentan-1-yl)-3,4-dihydro-2H-1-benzopyran-2-carboxamide], the EC50 fell in the range of 0.05 to 0.25 µM.

As to `O=C(COc1ccc(Cl)c(F)c1)N[C@H]1CC[C@H](NC(=O)C2CC(=O)c3cc(Cl)ccc3O2)CC1` (stereo partly drawn) [Compound 130, 6-chloro-N-{(1r,4r)-4-[2-(4-chloro-3-fluorophenoxy)acetamido]cyclohexyl}-4-oxo-3,4-dihydro-2H-1-benzopyran-2-carboxamide], the EC50 was 0.25 to 0.5 µM.

In the case of `O=C1C[C@H](C(=O)NC23CC(n4cnc(-c5ccc(F)c(F)c5)c4)(C2)C3)Oc2ccc(Cl)cc21` [Compound 176, (2R)-6-chloro-N-{3-[4-(3,4-difluorophenyl)-1H-imidazol-1-yl]bicyclo[1.1.1]pentan-1-yl}-4-oxo-3,4-dihydro-2H-1-benzopyran-2-carboxamide], the EC50 lay within 0.01 to 0.05 µM.

Turning to `O=C(CO[C@H]1C[C@@H](OC(F)(F)F)C1)NC12CCC(NC(=O)COc3ccc(Cl)c(F)c3)(CC1)[C@@H](O)C2` [Compound 112, 2-(4-chloro-3-fluorophenoxy)-N-[(2S)-2-hydroxy-4-(2-{[(1s,3R)-3-(trifluoromethoxy)cyclobutyl]oxy}acetamido)bicyclo[2.2.2]octan-1-yl]acetamide], the EC50 is below 0.01 µM.

As to `O=C(NC12CC(c3csc(-c4ccc(Cl)cc4)n3)(C1)C2)[C@H]1C[C@@H](O)c2cc(Cl)ccc2O1` [Compound 272, (2R,4R)-6-chloro-N-{3-[2-(4-chlorophenyl)-1,3-thiazol-4-yl]bicyclo[1.1.1]pentan-1-yl}-4-hydroxy-3,4-dihydro-2H-1-benzopyran-2-carboxamide], the EC50 was 0.01 to 0.05 µM.

Regarding `O=C(NC12CCC(c3nnc([C@H]4C[C@@H](OC(F)(F)F)C4)o3)(CC1)CC2)[C@H]1C[C@@H](O)c2cc(Cl)ccc2O1` [Compound 203, (2R,4R)-6-chloro-4-hydroxy-N-(4-{5-[cis-3-(trifluoromethoxy)cyclobutyl]-1,3,4-oxadiazol-2-yl}bicyclo[2.2.2]octan-1-yl)-3,4-dihydro-2H-1-benzopyran-2-carboxamide], the EC50 is below 0.01 µM.

Consider `O=C(COc1ccc(Cl)c(F)c1)NC12CC(C(=O)NCC3CC(=O)c4cc(Cl)ccc4O3)(C1)C2` (stereo not drawn) [Compound 103, 3-[2-(4-chloro-3-fluorophenoxy)acetamido]-N-[(6-chloro-4-oxo-3,4-dihydro-2H-1-benzopyran-2-yl)methyl]bicyclo[1.1.1]pentane-1-carboxamide], for which the EC50 lay in the range of 0.05 to 0.25 µM.

Regarding `O=C(CO[C@H]1C[C@@H](OC(F)(F)F)C1)NC12CCC(NC(=O)[C@H]3C[C@@H](O)c4cc(F)c(F)cc4O3)(CC1)CC2` [Compound 194, (2R,4R)-6,7-difluoro-4-hydroxy-N-[4-(2-{[cis-3-(trifluoromethoxy)cyclobutyl]oxy}acetamido)bicyclo[2.2.2]octan-1-yl]-3,4-dihydro-2H-1-benzopyran-2-carboxamide], the EC50 was below 0.01 µM.

`O=C(NC12CC(c3nc(-c4ccc(Cl)c(F)c4)no3)(C1)C2)[C@H]1C[C@@H](O)c2cc(Cl)ccc2O1` (single isomer, unassigned) [Compound 202]: the EC50 was below 0.01 µM.

`O=C(CO[C@H]1C[C@@H](OC(F)(F)F)C1)NC12CCC(NC(=O)[C@@H]3C[C@@H](O)c4cc(Cl)ccc4O3)(CC1)CC2` [Compound 239, (2S,4R)-6-chloro-4-hydroxy-N-[4-(2-{[cis-3-(trifluoromethoxy)cyclobutyl]oxy}acetamido)bicyclo[2.2.2]octan-1-yl]-3,4-dihydro-2H-1-benzopyran-2-carboxamide]: the EC50 is 0.01 to 0.05 µM.

Consider `O=C1CC(C(=O)NC23CCC(c4nnc([C@H]5C[C@@H](OC(F)(F)F)C5)o4)(CC2)CC3)Oc2ccc(Cl)cc21` (stereo partly drawn) [Compound 167, 6-chloro-4-oxo-N-(4-{5-[cis-3-(trifluoromethoxy)cyclobutyl]-1,3,4-oxadiazol-2-yl}bicyclo[2.2.2]octan-1-yl)-3,4-dihydro-2H-1-benzopyran-2-carboxamide], for which the EC50 was in the range of 0.01 to 0.05 µM.

For `O=C1C[C@H](C(=O)NC23CC(N4CCN(c5ccc(Cl)cc5)C4=O)(C2)C3)Oc2ccc(Cl)cc21` [Compound 179, (2R)-6-chloro-N-{3-[3-(4-chlorophenyl)-2-oxoimidazolidin-1-yl]bicyclo[1.1.1]pentan-1-yl}-4-oxo-3,4-dihydro-2H-1-benzopyran-2-carboxamide], the EC50 lay within 0.05 to 0.25 µM.

For the compound `O=C(N[C@H]1C[C@H]2C[C@@H]1C[C@@H]2n1cnc(-c2ccc(F)c(F)c2)c1)[C@H]1C[C@@H](O)c2cc(Cl)ccc2O1` [Compound 304, (2R,4R)-6-chloro-N-{(1R,2S,4R,5S)-5-[4-(3,4-difluorophenyl)-1H-imidazol-1-yl]bicyclo[2.2.1]heptan-2-yl}-4-hydroxy-3,4-dihydro-2H-1-benzopyran-2-carboxamide], the 50% effective concentration (EC50) was below 0.01 µM.

For `O=C(NC12CC(c3ncc([C@H]4C[C@@H](OC(F)(F)F)C4)[nH]3)(C1)C2)[C@H]1C[C@@H](O)c2cc(Cl)ccc2O1` [Compound 289, (2R,4R)-6-chloro-4-hydroxy-N-(3-{5-[cis-3-(trifluoromethoxy)cyclobutyl]-1H-imidazol-2-yl}bicyclo[1.1.1]pentan-1-yl)-3,4-dihydro-2H-1-benzopyran-2-carboxamide], the EC50 fell in the range of 0.01 to 0.05 µM.

Regarding `O=C(NC12CC(c3nc(-c4ccc(Cl)c(F)c4)no3)(C1)C2)[C@@H]1C[C@@H](O)c2cc(Cl)ccc2O1` [Compound 230, (2S,4R)-6-chloro-N-{3-[3-(4-chloro-3-fluorophenyl)-1,2,4-oxadiazol-5-yl]bicyclo[1.1.1]pentan-1-yl}-4-hydroxy-3,4-dihydro-2H-1-benzopyran-2-carboxamide], the EC50 lay within 0.05 to 0.25 µM.

As to `O=C(NC12CCC(c3nnc([C@H]4C[C@@H](OC(F)(F)F)C4)o3)(CC1)OC2)[C@H]1C[C@@H](O)c2cc(Cl)ccc2O1` [Compound 191, (2R,4R)-6-chloro-4-hydroxy-N-(1-{5-[cis-3-(trifluoromethoxy)cyclobutyl]-1,3,4-oxadiazol-2-yl}-2-oxabicyclo[2.2.2]octan-4-yl)-3,4-dihydro-2H-1-benzopyran-2-carboxamide], the EC50 is below 0.01 µM.

What is called EC50 is the midpoint of the concentration-response curve.
